Columns and labels:
[1] = tested on: LIM1215 colorectal cancer cell lines; experiment: ISG relative expression in LIM1215 cells; format: cell-based, human; conditions: LIM1215, ADAR1 KD vs WT, 300 nM for 5 days
Procedure: B) Interferon-stimulated genes (MDA5, IRF7 and DDX58) relative expression in ADAR1^WT and ADAR1^KD LIM1215 colorectal cancer cell lines treated with 300 nM 5-AZA-CdR for 5 days.
Based on these findings, we hypothesized that ADAR1 depletion would synergize with the viral mimicry response induced by DNMTi treatment. To assess how ADAR1 depletion affects 5-AZA-CdR treated samples, we performed RNA-seq analyses in patient-derived CRC cells. […] As a molecular read-out of dsRNA pattern recognition activation, we measured MAVS aggregation in the mitochondrial fraction of cell lysates^34. […] Taken together, our findings establish that ADAR1 acts as a negative feedback loop, restricting the viral mimicry response induced by DNMTi treatment in cancer cells.

MDA5 = experiment: MDA5-protection assay followed by RNA sequencing; format: cell-based, human
Procedure: A-C, Percentage of non-repeats and several families of Repetitive Elements in the total cytoplasmic fraction (‘Total CytoRNA’) and in the MDA5-protected fraction (‘MDA5-protected’) at the mock-treated baseline condition (A) and after 5-AZA-CdR treatment at 300 nM for 5 days, p<2.2e-16 (B). Treatment-induced immunogenic RNAs' refers to transcripts present in 5-AZA-CdR treated condition but not present in the baseline mock-treated condition (i.e. induced by the treatment), p<2.2e-16 (C). Each plot is the average percentage of two replicates. P-values represent the Fisher Exact test for enrichment of SINEs and depletion of non-repeats in immunogenic RNAs (5-AZA-CdR) and Treatment-induced immunogenic RNAs as compared to the MDA5-protected baseline immunogenic RNAs.
D-E, Counts of the expressed Alus in terms of the Log10 Fold change of their MDA5-protected expression over their Total CytoRNA expression. IR-Alus that are MDA5 dsRNA agonists have positive values on the x-axis. […] The color code represents Alus making Inverted Repeats pairs (gray) and Non-IR pairs (black) for Baseline immunogenic RNAs (n=187 Non-IR Alus and 1,602 IR-Alus) (D) and for the Treatment-induced immunogenic RNAs (n=992 Non-IR Alus and 5,199 IR-Alus) (E).
A, Venn-diagram showing the IR-Alu pairs at the Baseline (n=1,040), Immunogenic (5-AZA-CdR) (n=4,482) and Treatment-induced (n=3,687) conditions.
Viral mimicry response to epigenetic therapy is dependent on activation of the MDA5 pattern recognition receptor by endogenous dsRNAs^1,6,8. Therefore, to directly identify drug-induced immunogenic retroelements, we performed an MDA5-protection assay^19, followed by RNA sequencing. […] In contrast, only 1.71% of MDA5-protected RNAs in mock-treated samples were LTRs and 6.40% were LINEs (FIG. 2A). For DNMTi-treated samples, only 1.81% were LTRs and 7.56% were LINEs (FIG. 2B).
Then, to identify the immunogenic retroelements induced only by DNMTi treatment (“Treatment-Induced immunogenic RNAs”), we excluded those that were expressed in both the mock- and DNMTi-treated samples (FIG. 3A). Alu retroelements represented 88.72% of all MDA5-protected RNAs present only in DNMTi treated samples (“Treatment-Induced immunogenic RNAs”) (FIG. 2C). Treatment-induced immunogenic RNAs also included non-repeats (5.15%), LINEs (3.86%) and LTRs elements (1.37%) (FIG. 2C). Overall, our results reveal that while many dsRNA species are induced after DNMTi, Alu elements, but not LTRs/ERVs as previously assumed^1,2,4-6,20, are the major source of immunogenic dsRNA induced upon epigenetic therapy.
To uncover the molecular mechanisms of how repetitive elements generate immunogenic dsRNA, we examined all repeats in MDA5-protected transcripts and searched for repeat pairs within a 3 Kb window. […] Moreover, MDA5-protected RNA contained higher levels of IR-Alus compared to non-IR (direct repeat) Alus (FIG. 2D-E). The expression of baseline IR-Alus was maintained but not enhanced after 5-AZA-CdR treatment (FIG. 2D, FIG. 3D) while treatment-induced IR-Alu hybrids became highly expressed in the MDA5-protected RNA only after treatment with 5-AZA-CdR (FIG. 2E, FIG. 3E). […] Moreover, the majority of IR-Alu pairs were unidirectionally transcribed either in the sense (both repeats in the positive strand: “+/+”) or antisense (both repeats in the negative strand: “−/−”) direction in both baseline (FIG. 2H) and treatment-induced dsRNA (FIG. 2I).

[2] = MDA5-protected RNAs present only in DNMTi treated samples
[3] = MDA5-protected, induced by DNMTi

Compound: Nc1ncn([C@H]2C[C@H](O)[C@@H](CO)O2)c(=O)n1 [5-AZA-CdR]
- expression of IFN stimulated genes (ISGs) [1]: enhanced upon ADAR1 depletion
- number of IR-Alu pairs, Immunogenic (5-AZA-CdR) condition (MDA5; Baseline n=1,040): 4,482
- LTRs in MDA5-protected RNAs (MDA5; DNMTi-treated samples, mock-treated 1.71%): 1.81%
- LINEs in MDA5-protected RNAs (MDA5; DNMTi-treated samples, mock-treated 6.40%): 7.56%
- Alus in the MDA5-protected RNA (MDA5; Immunogenic RNAs (5-AZA-CdR), 300 nM for 5 days, mock-treated 53.03%): 72.33%
- Alu retroelements among Treatment-Induced immunogenic RNAs (MDA5; [2]): 88.72%
- LINEs among Treatment-induced immunogenic RNAs (MDA5; [2]): 3.86%
- LTRs elements among Treatment-induced immunogenic RNAs (MDA5; [2]): 1.37%
- non-repeats among Treatment-induced immunogenic RNAs (MDA5; [2]): 5.15%
- treatment-induced IR-Alu pairs within intergenic regions (MDA5; [3]): 16%
- treatment-induced IR-Alu pairs within introns (MDA5; [3]): 70%
- number of IR-Alu pairs, Treatment-induced condition (MDA5; present after 5-AZA-CdR, not at baseline): 3,687
